Here are results for 33 compounds from patent publication US7932270B2 (Cytokinetics, Inc., priority 2006, dated 2011).

One may read the IC50 as the concentration needed to halve the response being measured.

This test deals with T1, chicken gizzard smooth muscle myosin subfragment-1 chemically crosslinked to cardiac or skeletal actin (Gallus gallus, UniProt P10587).
T1 construct: chicken gizzard smooth muscle myosin subfragment-1; from tissue; host or cells: chicken gizzard
T1 sequence (P02607 2-151): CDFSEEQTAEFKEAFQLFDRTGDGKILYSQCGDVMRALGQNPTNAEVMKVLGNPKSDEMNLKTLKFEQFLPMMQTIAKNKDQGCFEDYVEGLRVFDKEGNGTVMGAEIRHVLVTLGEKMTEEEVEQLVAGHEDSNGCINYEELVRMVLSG
T1 sequence (P10587 84-789): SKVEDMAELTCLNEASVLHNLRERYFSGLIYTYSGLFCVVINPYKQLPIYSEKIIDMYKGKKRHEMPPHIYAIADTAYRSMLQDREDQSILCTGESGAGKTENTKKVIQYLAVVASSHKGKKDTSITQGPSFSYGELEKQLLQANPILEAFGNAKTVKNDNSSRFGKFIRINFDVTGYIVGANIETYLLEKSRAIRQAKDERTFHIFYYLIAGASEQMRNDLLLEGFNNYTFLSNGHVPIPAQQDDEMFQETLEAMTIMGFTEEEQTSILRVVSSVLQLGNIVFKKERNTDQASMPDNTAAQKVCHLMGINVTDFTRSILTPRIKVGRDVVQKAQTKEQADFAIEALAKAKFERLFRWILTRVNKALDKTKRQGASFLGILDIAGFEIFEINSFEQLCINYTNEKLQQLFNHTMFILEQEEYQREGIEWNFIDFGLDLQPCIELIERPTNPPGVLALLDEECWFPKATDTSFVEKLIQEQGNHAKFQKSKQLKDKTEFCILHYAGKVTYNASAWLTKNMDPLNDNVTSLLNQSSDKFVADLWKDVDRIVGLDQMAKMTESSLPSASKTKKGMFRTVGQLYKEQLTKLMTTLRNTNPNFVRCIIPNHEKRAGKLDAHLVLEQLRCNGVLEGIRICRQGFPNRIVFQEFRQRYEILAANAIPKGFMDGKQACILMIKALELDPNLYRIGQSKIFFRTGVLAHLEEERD
Kind of test: Smooth muscle myosin ATPase dose response assay (pyruvate kinase/horseradish peroxidase/pyruvate oxidase-coupled, amplex red fluorescence). The following applies: read-out: IC50 Arithmetic Mean. In kind it is biochemical. Summed up:
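Readout is amplex red signal from coupled ATPase of actin-crosslinked gizzard myosin S1 (0.15 mM ATP, 12 mM K-PIPES, pH 7.00). IC50 is the half-maximal activity point of a four-parameter Hill fit.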
For the compound `N#Cc1ccccc1-c1ccc(C(=O)NCC2CCN(C(=O)CCN)CC2)c(NCCc2cccc(F)c2)n1` [N-{[1-(3-aminopropanoyl)(4-piperidyl)]methyl}(6-(2-cyanophenyl)-2-{[2-(3-fluorophenyl)ethyl]amino}(3-pyridyl))carboxamide], the IC50 turned out to be 3870 nM.

For `C[C@H](CNC(=O)c1cc(F)c(-c2cnn(C)c2)nc1NCCc1cccc(F)c1)NC(=O)CO`, the IC50 was 197 nM. The result for `Cn1cc(-c2nc(NCCc3cccc(F)c3)c(C(=O)NC[C@H](CO)NC(=O)OC(C)(C)C)cc2F)cn1` [N-((1R)-1-{[(5-fluoro-2-{[2-(3-fluorophenyl)ethyl]amino}-6-(1-methylpyrazol-4-yl)(3-pyridyl))carbonylamino]methyl}-2-hydroxyethyl)(tert-butoxy)carboxamide] reads 25900 nM; that for `N#Cc1ccccc1-c1ccc(C(=O)NCc2cccnc2)c(NCCc2cccs2)n1` [{6-(2-cyanophenyl)-2-[(2-(2-thienyl)ethyl)amino](3-pyridyl)}-N-(3-pyridylmethyl)carboxamide], 29 nM.

Take `N#Cc1ccccc1-c1ccc(C(=O)NCc2cccnc2N)c(NCCc2cccc(F)c2)n1` [N-[(2-amino(3-pyridyl))methyl](6-(2-cyanophenyl)-2-{[2-(3-fluorophenyl)ethyl]amino}(3-pyridyl))carboxamide]: the IC50 was 22 nM. Then `N#Cc1ccccc1-c1ccc(C(=O)NC[C@H]2CCCCN2C(=O)OCCN)c(NCCc2cccc(F)c2)n1` [2-aminoethyl (2R)-2-{[(6-(2-cyanophenyl)-2-{[2-(3-fluorophenyl)ethyl]amino}(3-pyridyl))carbonylamino]methyl}piperidinecarboxylate], with 91 nM; and `O=C(NCc1cccnc1)c1ccc(-c2ccccc2)nc1NCCc1ccc2c(c1)OCO2`, with 28300 nM; and `COc1ccc(CNC(=O)c2ccc(-c3ccccc3C#N)nc2NCCc2cccc(F)c2)cn1` [(6-(2-cyanophenyl)-2-{[2-(3-fluorophenyl)ethyl]amino}(3-pyridyl))-N-[(6-methoxy(3-pyridyl))methyl]carboxamide], with 8100 nM. Then `Cc1ccccc1-c1ccc(C(=O)NCc2cccnc2)c(NCCc2ccccn2)n1` [{6-(2-methylphenyl)-2-[(2-(2-pyridyl)ethyl)amino](3-pyridyl)}-N-(3-pyridylmethyl)carboxamide], with 11000 nM.

Consider `CC(C)(C)OC(=O)NCCCN1C(=O)CC[C@@H]1CNC(=O)c1cc(F)c(-c2ccccc2C#N)nc1NCCc1cccc(F)c1` [N-[((2R)-1-{3-[(tert-butoxy)carbonylamino]propyl}-5-oxopyrrolidin-2-yl)methyl](6-(2-cyanophenyl)-5-fluoro-2-{[2-(3-fluorophenyl)ethyl]amino}(3-pyridyl))carboxamide], for which the IC50 is 845 nM. Then `Cn1cc(-c2nc(NCCc3cccc(F)c3)c(C(=O)NC[C@H]3CCC(=O)N3CCCNC(=O)OC(C)(C)C)cc2Cl)cn1` [N-[((2R)-1-{3-[(tert-butoxy)carbonylamino]propyl}-5-oxopyrrolidin-2-yl)methyl](5-chloro-2-{[2-(3-fluorophenyl)ethyl]amino}-6-(1-methylpyrazol-4-yl)(3-pyridyl))carboxamide], with 443 nM; and `N#Cc1ccccc1-c1ccc(C(=O)NCc2ccncc2CN)c(NCCc2cccc(F)c2)n1` [N-{[3-(aminomethyl)(4-pyridyl)]methyl}(6-(2-cyanophenyl)-2-{[2-(3-fluorophenyl)ethyl]amino}(3-pyridyl))carboxamide], with 56 nM; and `NCc1ncccc1CNC(=O)c1ccc(-c2cn[nH]c2)nc1NCCc1cccc(F)c1` [N-{[2-(aminomethyl)(3-pyridyl)]methyl}(2-{[2-(3-fluorophenyl)ethyl]amino}-6-pyrazol-4-yl(3-pyridyl))carboxamide], with 24 nM.

`N#Cc1ccccc1-c1ccc(C(=O)NCc2cnccc2CN)c(NCCc2cccc(F)c2)n1` [N-{[4-(aminomethyl)(3-pyridyl)]methyl}(6-(2-cyanophenyl)-2-{[2-(3-fluorophenyl)ethyl]amino}(3-pyridyl))carboxamide]: the half-inhibitory concentration (IC50) worked out at 401 nM. The result for `Cn1cc(-c2nc(NCCc3cccc(F)c3)c(C(=O)NC[C@H]3CCCN3)cc2Cl)cn1` [N-[((2R)pyrrolidin-2-yl)methyl](5-chloro-2-{[2-(3-fluorophenyl)ethyl]amino}-6-(1-methylpyrazol-4-yl)(3-pyridyl))carboxamide] reads 167 nM; that for `NCc1ccsc1-c1ccc(C(=O)NCc2cccnc2)c(NCCc2cccc(F)c2)n1` [(6-[3-(aminomethyl)(2-thienyl)]-2-{[2-(3-fluorophenyl)ethyl]amino}(3-pyridyl))-N-(3-pyridylmethyl)carboxamide], 55700 nM; that for `N#Cc1ccccc1-c1ccc(C(=O)NC[C@H]2CCCN2CCN)c(NCCc2cccc(F)c2)n1` [N-{[(2R)-1-(2-aminoethyl)pyrrolidin-2-yl]methyl}(6-(2-cyanophenyl)-2-{[2-(3-fluorophenyl)ethyl]amino}(3-pyridyl))carboxamide], 705 nM.

On to `Cn1cc(-c2nc(NCCc3cccc(F)c3)c(C(=O)NC[C@H]3CCN3C(=O)CNC(=O)OC(C)(C)C)cc2F)cn1` [N-[((2R)-1-{2-[(tert-butoxy)carbonylamino]acetyl}azetidin-2-yl)methyl](5-fluoro-2-{[2-(3-fluorophenyl)ethyl]amino}-6-(1-methylpyrazol-4-yl)(3-pyridyl))carboxamide], for which the 50% inhibitory concentration (IC50) amounted to 436 nM. With `O=C(NCc1cccnc1)c1ccc(-c2ccccc2)nc1NCCc1cc(F)cc(F)c1` [(2-{[2-(3,5-difluorophenyl)ethyl]amino}-6-phenyl(3-pyridyl))-N-(3-pyridylmethyl)carboxamide], the IC50 turned out to be 55 nM. The result for `C[C@@H](N)CNC(=O)c1cc(F)c(-c2cn[nH]c2)nc1NCCc1cccc(F)c1` [N-((2R)-2-aminopropyl)(5-fluoro-2-{[2-(3-fluorophenyl)ethyl]amino}-6-pyrazol-4-yl(3-pyridyl))carboxamide] reads 443 nM; that for `N#Cc1ccccc1-c1ccc(C(=O)NC[C@H](N)C(N)=O)c(NCCc2cccc(F)c2)n1` [N-((2S)-2-amino-2-carbamoylethyl)(6-(2-cyanophenyl)-2-{[2-(3-fluorophenyl)ethyl]amino}(3-pyridyl))carboxamide], 669 nM; that for `Cn1cc(-c2nc(NCCc3cccc(F)c3)c(C(=O)NCc3cccnc3CN)cc2F)cn1` [N-{[2-(aminomethyl)(3-pyridyl)]methyl}(5-fluoro-2-{[2-(3-fluorophenyl)ethyl]amino}-6-(1-methylpyrazol-4-yl)(3-pyridyl))carboxamide], 12 nM. Then `NCc1ncccc1CNC(=O)c1ccc(-c2ccccc2)nc1NCCc1cccc(F)c1` [N-{[2-(aminomethyl)(3-pyridyl)]methyl}(2-{[2-(3-fluorophenyl)ethyl]amino}-6-phenyl(3-pyridyl))carboxamide], with 8 nM; and `Cn1cc(-c2nc(NCCc3cccc(F)c3)c(C(=O)NC[C@H]3CCC(=O)N3CCCNC(=O)OC(C)(C)C)cc2C#N)cn1` [N-[3-((5R)-5-{[(5-cyano-2-{[2-(3-fluorophenyl)ethyl]amino}-6-(1-methylpyrazol-4-yl)(3-pyridyl))carbonylamino]methyl}-2-oxopyrrolidinyl)propyl](tert-butoxy)carboxamide], with 1150 nM. For the compound `Cn1cc(-c2nc(NCCc3cccc(F)c3)c(C(=O)NCc3cc[nH]n3)cc2F)cn1` [(5-fluoro-2-{[2-(3-fluorophenyl)ethyl]amino}-6-(1-methylpyrazol-4-yl)(3-pyridyl))-N-(pyrazol-3-ylmethyl)carboxamide], the IC50 is 20 nM. On to `O=C(NCCc1cccnc1)c1ccc(-c2ccccc2)nc1NCCc1ccccc1` [{6-phenyl-2-[(2-phenylethyl)amino](3-pyridyl)}-N-(2-(3-pyridyl)ethyl)carboxamide], for which the 50% inhibitory concentration (IC50) was 3090 nM. Then `O=C(NCc1cccnc1)c1ccc(-c2ccccc2)nc1NCCc1cccnc1` [{6-phenyl-2-[(2-(3-pyridyl)ethyl)amino](3-pyridyl)}-N-(3-pyridylmethyl)carboxamide], with 2190 nM; and `N#Cc1ccccc1-c1ccc(C(=O)NC[C@H]2CCN2C(=O)CCCO)c(NCCc2cccc(F)c2)n1` [N-{[(2R)-1-(4-hydroxybutanoyl)azetidin-2-yl]methyl}(6-(2-cyanophenyl)-2-{[2-(3-fluorophenyl)ethyl]amino}(3-pyridyl))carboxamide], with 60 nM; and `N#Cc1ccccc1-c1ccc(C(=O)NC[C@H]2CCCCN2C(=O)CCN)c(NCCc2cccc(F)c2)n1` [N-{[(2R)-1-(3-aminopropanoyl)(2-piperidyl)]methyl}(6-(2-cyanophenyl)-2-{[2-(3-fluorophenyl)ethyl]amino}(3-pyridyl))carboxamide], with 155 nM. The result for `O=C(NC[C@H]1CCCN1C(=O)CO)c1ccc(-c2cn[nH]c2)nc1NCCc1cccc(F)c1` [N-{[(2R)-1-(2-hydroxyacetyl)pyrrolidin-2-yl]methyl}(2-{[2-(3-fluorophenyl)ethyl]amino}-6-pyrazol-4-yl(3-pyridyl))carboxamide] reads 1190 nM; that for `C[C@@H](CO)CNC(=O)c1ccc(-c2ccccc2C#N)nc1NCCc1cccc(F)c1` [N-((2R)-3-hydroxy-2-methylpropyl)(6-(2-cyanophenyl)-2-{[2-(3-fluorophenyl)ethyl]amino}(3-pyridyl))carboxamide], 61 nM.

For the compound `Cc1cc(C(=O)NC[C@H]2CCCN2C(=O)CCCN)c(NCCc2cccc(F)c2)nc1-c1cnn(C)c1` [N-{[(2R)-1-(4-aminobutanoyl)pyrrolidin-2-yl]methyl}(2-{[2-(3-fluorophenyl)ethyl]amino}-5-methyl-6-(1-methylpyrazol-4-yl)(3-pyridyl))carboxamide], the IC50 stood at 381 nM. Then `N#Cc1ccccc1-c1ccc(C(=O)NC[C@H]2CCCN2CCCN)c(NCCc2cccc(F)c2)n1`, with 1390 nM.
